Measured values taken from ChEMBL document CHEMBL1201862, “PubChem BioAssay data set” (2004).
Activity calls are given as the source filed them.

Legend:
[1] = biological target: T1, Corticotropin-releasing factor receptor 2/Corticotropin-releasing factor-binding protein (Homo sapiens, UniProt P24387+Q13324); assay: Dose Response confirmation of uHTS hits for small molecule antagonists of the CRF-binding protein and CRF-R2 receptor complex.; assay type: functional; details: read-out: IC50_Mean
T1 sequence (Q13324 whole entry): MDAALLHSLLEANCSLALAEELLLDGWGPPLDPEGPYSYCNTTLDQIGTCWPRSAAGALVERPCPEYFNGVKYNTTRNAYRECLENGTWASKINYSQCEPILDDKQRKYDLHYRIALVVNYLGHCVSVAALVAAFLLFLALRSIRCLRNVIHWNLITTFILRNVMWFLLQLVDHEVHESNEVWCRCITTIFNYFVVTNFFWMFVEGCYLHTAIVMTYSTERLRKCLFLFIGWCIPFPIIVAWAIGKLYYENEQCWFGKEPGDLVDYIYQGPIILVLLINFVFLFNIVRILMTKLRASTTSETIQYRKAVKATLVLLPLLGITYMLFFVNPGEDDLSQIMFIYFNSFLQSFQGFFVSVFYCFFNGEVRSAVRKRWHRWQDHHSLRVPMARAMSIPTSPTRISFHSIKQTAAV
T1 sequence (P24387 whole entry): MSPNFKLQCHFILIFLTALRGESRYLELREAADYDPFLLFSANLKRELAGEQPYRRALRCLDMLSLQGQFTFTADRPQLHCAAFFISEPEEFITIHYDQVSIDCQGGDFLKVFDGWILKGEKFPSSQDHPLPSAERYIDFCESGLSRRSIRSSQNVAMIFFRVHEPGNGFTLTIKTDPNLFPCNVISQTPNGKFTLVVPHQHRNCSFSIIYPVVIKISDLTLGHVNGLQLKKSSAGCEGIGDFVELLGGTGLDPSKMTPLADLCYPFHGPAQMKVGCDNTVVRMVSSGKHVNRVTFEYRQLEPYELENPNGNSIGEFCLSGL

[2] = blockers of CRF-binding protein–CRF-R2 complex – cell-based, uHTS hits, 384-well, dose response (AID 651639); assay type: functional, Homo sapiens; details: read-out: IC50_Mean
[3] = biological target: T1, Corticotropin-releasing factor receptor 2/Corticotropin-releasing factor-binding protein; assay: activators of CRF receptor 2 with binding protein – uHTS hits, confirmation (AID 602473); assay type: functional; details: read-out: EC50_Mean
[4] = biological target: ATP-dependent translocase ABCB1 (Homo sapiens, UniProt P08183); assay: inhibition of P-gp mediated JC-1 efflux – Jurkat-DNR cells, flow cytometry, dose response (AID 1689); assay type: functional
Chain of ATP-dependent translocase ABCB1 (P08183 whole entry): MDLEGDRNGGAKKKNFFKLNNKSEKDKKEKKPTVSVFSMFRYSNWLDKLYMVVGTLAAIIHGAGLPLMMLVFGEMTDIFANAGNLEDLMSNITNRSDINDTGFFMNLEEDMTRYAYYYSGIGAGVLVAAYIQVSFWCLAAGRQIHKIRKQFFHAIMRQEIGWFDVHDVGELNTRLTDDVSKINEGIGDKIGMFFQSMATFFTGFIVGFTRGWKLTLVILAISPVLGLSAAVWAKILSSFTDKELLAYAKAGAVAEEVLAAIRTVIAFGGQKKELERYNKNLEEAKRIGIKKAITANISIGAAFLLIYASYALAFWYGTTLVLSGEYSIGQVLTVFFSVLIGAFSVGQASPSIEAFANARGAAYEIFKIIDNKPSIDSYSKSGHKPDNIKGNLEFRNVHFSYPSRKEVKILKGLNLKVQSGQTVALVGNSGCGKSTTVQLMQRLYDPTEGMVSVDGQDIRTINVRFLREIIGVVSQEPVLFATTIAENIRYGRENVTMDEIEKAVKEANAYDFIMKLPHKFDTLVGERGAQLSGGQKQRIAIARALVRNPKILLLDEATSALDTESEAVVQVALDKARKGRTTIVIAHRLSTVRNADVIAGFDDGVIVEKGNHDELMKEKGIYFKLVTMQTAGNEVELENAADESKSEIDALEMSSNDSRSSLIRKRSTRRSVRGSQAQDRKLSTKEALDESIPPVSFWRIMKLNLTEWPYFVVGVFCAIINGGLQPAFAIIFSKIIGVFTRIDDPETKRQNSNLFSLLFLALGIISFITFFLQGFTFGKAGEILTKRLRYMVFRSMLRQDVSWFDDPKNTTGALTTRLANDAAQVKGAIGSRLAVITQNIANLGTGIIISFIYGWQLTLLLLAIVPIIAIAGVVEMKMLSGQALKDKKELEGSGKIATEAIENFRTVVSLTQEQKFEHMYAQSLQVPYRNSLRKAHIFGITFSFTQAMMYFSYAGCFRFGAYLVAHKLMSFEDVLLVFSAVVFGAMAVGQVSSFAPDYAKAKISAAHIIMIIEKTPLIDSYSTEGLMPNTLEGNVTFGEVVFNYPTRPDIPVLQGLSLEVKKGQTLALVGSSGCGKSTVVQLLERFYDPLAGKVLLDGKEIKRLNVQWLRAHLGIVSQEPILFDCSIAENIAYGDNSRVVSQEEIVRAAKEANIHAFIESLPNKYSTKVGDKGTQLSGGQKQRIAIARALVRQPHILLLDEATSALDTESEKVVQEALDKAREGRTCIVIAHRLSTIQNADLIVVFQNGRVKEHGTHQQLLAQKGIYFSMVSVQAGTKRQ

[5] = biological target: Broad substrate specificity ATP-binding cassette transporter ABCG2 (Homo sapiens, UniProt Q9UNQ0); assay: blockers of JC-1 export by ABCG2 – Ig-MXP3 cells, flow cytometry, dose response (AID 1690); assay type: functional
Chain of Broad substrate specificity ATP-binding cassette transporter ABCG2 (Q9UNQ0 whole entry): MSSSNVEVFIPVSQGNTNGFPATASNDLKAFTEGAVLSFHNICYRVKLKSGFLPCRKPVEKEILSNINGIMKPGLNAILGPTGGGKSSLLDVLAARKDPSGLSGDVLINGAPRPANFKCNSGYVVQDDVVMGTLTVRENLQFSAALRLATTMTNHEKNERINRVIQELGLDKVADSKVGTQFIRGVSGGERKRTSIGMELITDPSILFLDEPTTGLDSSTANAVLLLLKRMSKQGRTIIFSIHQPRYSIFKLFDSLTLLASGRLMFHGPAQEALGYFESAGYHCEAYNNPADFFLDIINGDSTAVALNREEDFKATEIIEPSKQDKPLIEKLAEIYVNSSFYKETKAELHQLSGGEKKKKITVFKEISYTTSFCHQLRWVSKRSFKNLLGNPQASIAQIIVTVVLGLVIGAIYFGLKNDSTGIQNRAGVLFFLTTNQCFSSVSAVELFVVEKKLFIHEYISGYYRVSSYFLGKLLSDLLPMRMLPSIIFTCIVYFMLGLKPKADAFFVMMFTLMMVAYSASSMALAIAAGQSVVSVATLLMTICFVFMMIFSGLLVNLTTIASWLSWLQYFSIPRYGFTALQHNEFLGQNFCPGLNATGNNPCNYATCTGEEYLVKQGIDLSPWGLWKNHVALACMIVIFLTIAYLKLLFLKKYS

[6] = viability loss in HeLa cells – cytotoxicity control for MgcRacGAP inhibitor project, dose response (AID 624300); assay type: functional
[7] = biological target: T2, Rac GTPase-activating protein 1 (Homo sapiens, UniProt Q9H0H5); assay: blockers of MgcRacGAP-driven Rac1 GTP hydrolysis – biochemical, ADP Hunter fluorescence, primary and confirmatory, confirmation (AID 624330); assay type: functional
T2 sequence (Q9H0H5 whole entry): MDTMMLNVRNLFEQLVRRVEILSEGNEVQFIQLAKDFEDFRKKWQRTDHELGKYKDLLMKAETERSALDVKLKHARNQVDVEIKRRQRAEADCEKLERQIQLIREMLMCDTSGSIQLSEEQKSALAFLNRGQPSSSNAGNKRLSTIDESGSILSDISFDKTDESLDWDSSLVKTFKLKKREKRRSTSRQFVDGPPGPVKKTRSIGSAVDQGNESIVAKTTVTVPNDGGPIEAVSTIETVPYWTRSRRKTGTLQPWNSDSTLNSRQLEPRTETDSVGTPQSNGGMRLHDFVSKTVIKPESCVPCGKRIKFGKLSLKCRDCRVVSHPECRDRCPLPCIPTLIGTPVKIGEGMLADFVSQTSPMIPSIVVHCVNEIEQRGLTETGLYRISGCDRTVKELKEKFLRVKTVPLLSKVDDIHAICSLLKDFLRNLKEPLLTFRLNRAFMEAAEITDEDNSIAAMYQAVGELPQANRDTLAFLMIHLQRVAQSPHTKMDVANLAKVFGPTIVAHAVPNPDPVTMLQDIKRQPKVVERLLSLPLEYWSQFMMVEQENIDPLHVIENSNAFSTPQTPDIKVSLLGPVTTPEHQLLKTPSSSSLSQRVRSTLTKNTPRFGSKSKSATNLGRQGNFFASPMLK

[8] = Trypanosoma cruzi growth suppression in host cells – NIH3T3 host cells, beta-gal luminescence, confirmation (AID 2044); assay type: functional, cell-based;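 further: intracellular parasites grown in NIH/3T3 mouse fibroblasts as host cells; luminescent beta-galactosidase reporter signal from transgenic T. cruzi replicating inside host cells; inhibitors lower the luminescence signal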
[9] = NIH3T3 cell viability loss – ATP luminescence, mouse fibroblasts, counter-screen, dose response (AID 2010); assay type: functional, cell-based;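 further: cells exposed to compound for about 90 hours before reading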
[10] = biological target: T3, High affinity choline transporter 1 (Homo sapiens, UniProt Q9GZV3); assay: human choline transporter blockers, potency – cell-based, 5-point CRC, membrane potential dye, dose response (AID 504840); assay type: functional
T3 sequence (Q9GZV3 whole entry): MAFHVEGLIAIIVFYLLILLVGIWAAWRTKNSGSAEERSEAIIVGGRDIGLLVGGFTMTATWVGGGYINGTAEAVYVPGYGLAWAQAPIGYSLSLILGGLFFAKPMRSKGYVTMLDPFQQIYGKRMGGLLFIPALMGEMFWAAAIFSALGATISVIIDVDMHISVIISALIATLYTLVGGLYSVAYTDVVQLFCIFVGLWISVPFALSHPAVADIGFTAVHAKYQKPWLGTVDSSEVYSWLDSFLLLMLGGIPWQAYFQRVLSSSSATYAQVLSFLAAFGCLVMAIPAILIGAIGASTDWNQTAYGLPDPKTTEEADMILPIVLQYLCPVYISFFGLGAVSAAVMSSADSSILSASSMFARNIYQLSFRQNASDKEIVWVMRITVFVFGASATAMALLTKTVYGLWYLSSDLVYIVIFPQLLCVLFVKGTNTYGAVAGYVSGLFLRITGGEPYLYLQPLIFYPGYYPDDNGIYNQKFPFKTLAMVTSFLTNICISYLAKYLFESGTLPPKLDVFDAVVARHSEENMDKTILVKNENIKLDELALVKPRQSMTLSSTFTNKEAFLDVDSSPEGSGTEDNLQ

[11] = Luminescence Cell-Based Dose Retest to Confirm Inhibitors of Cancer Stem Cells. [Related pubchem assays (depositor defined):AID2717, AID2721]; assay type: functional; details: Homo sapiens
Interleukin-8 [12] = biological target: T4, Interleukin-8 (Homo sapiens, UniProt P10145); assay: Dose Response confirmation of uHTS small molecule hits for cystic fibrosis induced NFkb Inhibitors in a PAF-induced IL8 counterscreen.; assay type: functional; details: read-out: IC50_Mean
T4 sequence (P10145 whole entry): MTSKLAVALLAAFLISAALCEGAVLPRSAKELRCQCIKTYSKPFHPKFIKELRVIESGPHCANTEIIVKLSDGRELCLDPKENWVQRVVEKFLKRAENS

Interleukin-8 [13] = biological target: T4, Interleukin-8; assay: Dose Response confirmation of uHTS small molecule hits for cystic fibrosis induced NFkb Inhibitors in a TNFa-induced IL8 counterscreen.; assay type: functional; details: read-out: IC50_Mean
[14] = biological target: Adenosylmethionine-8-amino-7-oxononanoate aminotransferase (Mycobacterium tuberculosis, UniProt P9WQ81); assay: Mycobacterium tuberculosis BioA enzyme inhibitor Measured in Biochemical System Using Plate Reader - 2163-02_Inhibitor_Dose_CherryPick_Activity.; assay type: functional, Mycobacterium tuberculosis UT205
Chain of Adenosylmethionine-8-amino-7-oxononanoate aminotransferase (P9WQ81 whole entry): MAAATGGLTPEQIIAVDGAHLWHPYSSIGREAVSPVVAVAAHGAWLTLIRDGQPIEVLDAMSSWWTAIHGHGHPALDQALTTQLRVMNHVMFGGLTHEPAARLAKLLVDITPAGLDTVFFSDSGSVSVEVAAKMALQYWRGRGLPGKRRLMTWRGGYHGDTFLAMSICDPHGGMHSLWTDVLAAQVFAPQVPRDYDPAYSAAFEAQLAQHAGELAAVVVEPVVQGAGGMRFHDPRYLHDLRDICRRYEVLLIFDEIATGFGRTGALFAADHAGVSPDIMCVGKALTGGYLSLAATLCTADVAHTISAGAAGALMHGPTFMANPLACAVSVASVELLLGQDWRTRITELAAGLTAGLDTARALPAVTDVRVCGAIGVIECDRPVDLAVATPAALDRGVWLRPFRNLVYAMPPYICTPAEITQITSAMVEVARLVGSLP

[15] = biological target: T5, Orexin/Hypocretin receptor type 1 (Homo sapiens, UniProt O43613); assay: Homogeneous Time Resolved Fluorescence (HTRF)-based cell-based high throughput dose response assay for antagonists of the orexin 1 receptor (OX1R; HCRTR1). [Related pubchem assays (depositor defined):AID434989, AID435008, AID463079, AID485270, AID492963, AID492964, AID492965, AID493232, AID504717, AID504718]; assay type: functional
T5 sequence (O43613 whole entry): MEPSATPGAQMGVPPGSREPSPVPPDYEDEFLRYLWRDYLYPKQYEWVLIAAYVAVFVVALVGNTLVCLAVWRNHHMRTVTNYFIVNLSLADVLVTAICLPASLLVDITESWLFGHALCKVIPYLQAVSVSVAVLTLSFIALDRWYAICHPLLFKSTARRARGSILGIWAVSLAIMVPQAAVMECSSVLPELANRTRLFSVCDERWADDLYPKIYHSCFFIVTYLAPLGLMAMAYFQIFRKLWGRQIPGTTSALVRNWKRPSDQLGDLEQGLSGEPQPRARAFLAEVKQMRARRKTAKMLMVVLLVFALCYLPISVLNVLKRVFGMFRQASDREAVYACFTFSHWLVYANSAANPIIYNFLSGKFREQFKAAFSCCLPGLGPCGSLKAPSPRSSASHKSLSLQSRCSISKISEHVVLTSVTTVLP

Orexin receptor type 2 [16] = biological target: T6, Orexin receptor type 2 (Homo sapiens, UniProt O43614); assay: Counterscreen assay for antagonists of the orexin 1 receptor (OX1R; HCRTR1): Homogeneous Time Resolved Fluorescence (HTRF)-based cell-based dose response assay for antagonists of the orexin 2 receptor (OX2R; HCRTR2), run by assay provider.; assay type: functional
T6 sequence (O43614 whole entry): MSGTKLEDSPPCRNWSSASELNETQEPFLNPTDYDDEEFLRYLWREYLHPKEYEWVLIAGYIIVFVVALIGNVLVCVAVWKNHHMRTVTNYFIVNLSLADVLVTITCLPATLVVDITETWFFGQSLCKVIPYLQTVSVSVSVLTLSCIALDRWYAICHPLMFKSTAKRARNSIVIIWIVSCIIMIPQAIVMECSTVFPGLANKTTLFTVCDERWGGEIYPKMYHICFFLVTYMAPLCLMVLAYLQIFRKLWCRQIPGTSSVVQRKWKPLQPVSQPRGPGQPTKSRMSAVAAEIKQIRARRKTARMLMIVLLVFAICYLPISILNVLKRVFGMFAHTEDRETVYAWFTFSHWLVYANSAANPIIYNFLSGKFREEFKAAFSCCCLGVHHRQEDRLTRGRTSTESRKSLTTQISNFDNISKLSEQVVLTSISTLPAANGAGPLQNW

Orexin receptor type 2 [17] = biological target: T6, Orexin receptor type 2; assay: Counterscreen assay for antagonists of the orexin 1 receptor (OX1R; HCRTR1): Fluorescence-based cell-based dose response assay for antagonists of the orexin 2 receptor (OX2R; HCRTR2), run by assay provider.; assay type: functional
[18] = biological target: T5, Orexin/Hypocretin receptor type 1; assay: Fluorescence-based cell-based high throughput dose response assay for antagonists of the orexin 1 receptor (OX1R; HCRTR1). [Related pubchem assays (depositor defined):AID434989, AID435008, AID463079, AID485270, AID492963, AID492964, AID492965, AID493232, AID504717, AID504718]; assay type: functional
CHO-K1 = assay: Counterscreen for antagonists of the orexin 1 receptor (OX1R; HCRTR1): Homogeneous time resolved fluorescence (HTRF)-based cell-based dose response assay to identify antagonists of the parental CHO-K1 cell line. [Related pubchem assays (depositor defined):AID434989, AID435008, AID463079, AID485270, AID492963, AID492964, AID492965, AID493232, AID504699, AID504701]; assay type: functional; details: Cricetulus griseus;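 further: potency for inhibition of ATP-stimulated IP1 production as antagonists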
[19] = Counterscreen for antagonists of the orexin 1 receptor (OX1R; HCRTR1): Fluorescence-based cell-based high throughput dose response assay to identify antagonists of the parental CHO cell line. [Related pubchem assays (depositor defined):AID434989, AID435008, AID463079, AID485270, AID492963, AID492964, AID492965, AID493232, AID504699, AID504701]; assay type: functional
Galanin receptor type 3 = Galanin receptor type 3 (Homo sapiens, UniProt O60755); assay: Fluorescence-based cell-based primary high throughput dose response assay to identify antagonists of the Galanin Receptor 3 (GalR3).; assay type: functional
Chain of Galanin receptor type 3 (O60755 whole entry): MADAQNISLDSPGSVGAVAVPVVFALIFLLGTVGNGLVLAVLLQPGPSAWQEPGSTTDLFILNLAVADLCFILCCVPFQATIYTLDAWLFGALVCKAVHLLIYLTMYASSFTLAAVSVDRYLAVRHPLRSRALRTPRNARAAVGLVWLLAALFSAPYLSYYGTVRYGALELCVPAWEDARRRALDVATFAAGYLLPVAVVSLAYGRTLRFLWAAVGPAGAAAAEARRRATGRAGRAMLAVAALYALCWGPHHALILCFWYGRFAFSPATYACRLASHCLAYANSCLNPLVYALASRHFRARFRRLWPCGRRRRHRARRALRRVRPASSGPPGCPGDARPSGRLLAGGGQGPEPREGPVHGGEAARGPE

cells = assay type: functional, cell-based; details: HEK-CNG

Cc1ccc(CSCC(=O)Nc2cc(S(=O)(=O)N3CCOCC3)ccc2OC(C)C)cc1
IC50 [1]: < 0.368 µM (active)
IC50 [2]: > 20 µM (inactive)
EC50 [3]: > 53 µM (inactive)

Cc1cc(C)n(-c2ccc(Cl)c(C(=O)Nc3cc(C(F)(F)F)ccc3Cl)n2)n1
EC50 [4]: 5.21 µM (inactive)
EC50 [5]: 0.24 µM (inactive)

Cc1cc(C(=O)N2CCN(c3ccc([N+](=O)[O-])cc3)CC2)co1
IC50 [1]: 36.1 µM (active)
IC50 [2]: > 20 µM (inactive)
EC50 [3]: > 53 µM (inactive)

CCOCCCNC(=O)/C(C#N)=C/c1ccc([N+](=O)[O-])o1
CC50 [6]: 96.6 µM (active)
IC50 [7]: 149 µM (active)
EC50 [8]: 3.08 µM (active)
EC50 [9]: 4.2 µM (active)
IC50 [10]: 4.79 µM (active)
AC50 [11]: 5.62 µM (active)

COc1cc2nc(S)nc(NCCc3ccc(S(N)(=O)=O)cc3)c2cc1OC
CC50 [6]: 100 µM (active)

CC(=O)c1cccc(NC(=O)Nc2cccnc2)c1
IC50 (Interleukin-8 [12]): 45.7 µM (inactive)
IC50 (Interleukin-8 [13]): 43.8 µM (inactive)

CCn1c(Oc2ccccc2F)nc2c1c(=O)n(C)c(=O)n2C
IC50 (Interleukin-8 [12]): 21 µM (inactive)
IC50 (Interleukin-8 [13]): 4.08 µM (active)

COCCN1C(=O)c2ccc(C(=O)Nc3cccnc3)cc2C1=O
AC50 [14]: 4.26 µM (active)

CCN(CC)P(=O)(Nc1cccc(C(F)(F)F)c1)c1ccc(N(C)C)cc1NC(=O)c1ccco1 (configuration not stated)
EC50 [8]: 1.3 µM (active)
IC50 [15]: 0.184 µM (active)
EC50 [4]: 0.998 µM (active)
EC50 [9]: > 30 µM (not active)
IC50 (Orexin receptor type 2 [16]): > 50 µM (inactive)
EC50 [5]: 2.29 µM (active)
IC50 (Orexin receptor type 2 [17]): 5 µM (active)
IC50 [18]: 2.29 µM (active)
IC50 (CHO-K1): > 66.2 µM (inactive)
IC50 [19]: > 49.8 µM (inactive)

COc1ccc(C(=O)CSc2nnc(Cn3cnc4ccccc43)o2)cc1
IC50 (Galanin receptor type 3): 0.891 µM (active)
EC50 (cells): > 29.9 µM (inactive)
